Measurements: the NIST ThermoML archive (doi:10.1021/je800110r)
Numbers after ± are expanded uncertainties.

Details: 303.16 K, Liquid, Vibrating tube method

CCCCCCCCCC [decane]
Details	mass density [kg/m3]
6904 kPa	727.9 ± 2
6929 kPa	727.9 ± 2
6949 kPa	727.9 ± 2
6969 kPa	727.8 ± 2
6992 kPa	727.8 ± 2
7009 kPa	728 ± 2
7035 kPa	727.9 ± 2
7053 kPa	728 ± 2
7084 kPa	727.9 ± 2
7102 kPa	728 ± 2
7120 kPa	727.9 ± 2
7147 kPa	728 ± 2
7171 kPa	728 ± 2
7193 kPa	728 ± 2
7215 kPa	728.1 ± 2
7235 kPa	728.1 ± 2
7258 kPa	728.1 ± 2
7279 kPa	728.1 ± 2
7295 kPa	728 ± 2
7309 kPa	728.1 ± 2
7326 kPa	728.1 ± 2
7343 kPa	728.2 ± 2
7357 kPa	728.1 ± 2
7371 kPa	728.2 ± 2
7388 kPa	728.3 ± 2
7403 kPa	728.1 ± 2
7422 kPa	728.3 ± 2
7442 kPa	728.3 ± 2
7459 kPa	728.3 ± 2
7474 kPa	728.2 ± 2
7491 kPa	728.3 ± 2
7511 kPa	728.2 ± 2
7532 kPa	728.4 ± 2
7549 kPa	728.3 ± 2
7567 kPa	728.3 ± 2
7588 kPa	728.4 ± 2
7605 kPa	728.4 ± 2
7626 kPa	728.4 ± 2
7644 kPa	728.3 ± 2
7665 kPa	728.5 ± 2
7683 kPa	728.3 ± 2
7699 kPa	728.5 ± 2
7720 kPa	728.4 ± 2
7737 kPa	728.4 ± 2
7756 kPa	728.5 ± 2
7783 kPa	728.5 ± 2
7802 kPa	728.5 ± 2
7819 kPa	728.5 ± 2
7847 kPa	728.5 ± 2
7867 kPa	728.5 ± 2
7880 kPa	728.5 ± 2
7901 kPa	728.6 ± 2
7922 kPa	728.6 ± 2
7936 kPa	728.6 ± 2
7957 kPa	728.7 ± 2
7974 kPa	728.6 ± 2
7993 kPa	728.7 ± 2
8014 kPa	728.6 ± 2
8028 kPa	728.7 ± 2
8052 kPa	728.6 ± 2
8069 kPa	728.7 ± 2
8088 kPa	728.7 ± 2
8105 kPa	728.8 ± 2
8124 kPa	728.7 ± 2
8139 kPa	728.7 ± 2
8157 kPa	728.8 ± 2
8172 kPa	728.9 ± 2
8191 kPa	728.8 ± 2
8214 kPa	728.9 ± 2
8229 kPa	728.9 ± 2
8249 kPa	728.8 ± 2
8265 kPa	728.8 ± 2
8287 kPa	728.9 ± 2
8313 kPa	729 ± 2
8328 kPa	728.9 ± 2
8349 kPa	728.9 ± 2
8365 kPa	729 ± 2
8382 kPa	729.1 ± 2
8400 kPa	729.1 ± 2
8417 kPa	729 ± 2
8439 kPa	728.9 ± 2
8459 kPa	729 ± 2
8476 kPa	729.1 ± 2
8493 kPa	729.1 ± 2
8509 kPa	729 ± 2
8529 kPa	729 ± 2
8546 kPa	729.1 ± 2
8561 kPa	729.2 ± 2
8582 kPa	729.1 ± 2
8601 kPa	729.2 ± 2
8617 kPa	729.2 ± 2
8632 kPa	729.2 ± 2
8647 kPa	729.2 ± 2
8663 kPa	729.2 ± 2
8682 kPa	729.2 ± 2
8699 kPa	729.2 ± 2
8715 kPa	729.2 ± 2
8730 kPa	729.2 ± 2
8742 kPa	729.3 ± 2
8752 kPa	729.3 ± 2
8768 kPa	729.2 ± 2
8778 kPa	729.3 ± 2
8792 kPa	729.2 ± 2
8807 kPa	729.4 ± 2
8821 kPa	729.3 ± 2
8831 kPa	729.3 ± 2
8847 kPa	729.2 ± 2
8862 kPa	729.3 ± 2
8874 kPa	729.2 ± 2
8884 kPa	729.4 ± 2
8895 kPa	729.3 ± 2
8905 kPa	729.3 ± 2
8920 kPa	729.4 ± 2
8936 kPa	729.4 ± 2
8948 kPa	729.4 ± 2
8961 kPa	729.5 ± 2
8973 kPa	729.4 ± 2
8986 kPa	729.4 ± 2
8998 kPa	729.5 ± 2
9014 kPa	729.5 ± 2
9025 kPa	729.4 ± 2
9040 kPa	729.5 ± 2
9051 kPa	729.5 ± 2
9064 kPa	729.4 ± 2
9075 kPa	729.5 ± 2
9092 kPa	729.6 ± 2
9107 kPa	729.6 ± 2
9118 kPa	729.5 ± 2
9133 kPa	729.6 ± 2
9151 kPa	729.6 ± 2
9166 kPa	729.5 ± 2
9179 kPa	729.5 ± 2
9192 kPa	729.6 ± 2
9204 kPa	729.6 ± 2
9219 kPa	729.7 ± 2
9237 kPa	729.6 ± 2
9251 kPa	729.6 ± 2
